GI50 and TGI data for 12 compounds are collected here from PubChem BioAssay (NCI).

Common to all, as to assay: inhibition of tumour cell growth, NCI panel, 48 h
Experiment [1] deals with NCI-H522 lung.
For experiment [2], the system named is SF-295 CNS.
Experiment [3] relates to PC-3 prostate.
Experiment [4] concerns MOLT-4 leukemia.
Experiment [5] has as its system RXF 393 renal.
Experiment [6] relates to ACHN renal.
Experiment [7] deals with NCI-H460 lung.
For experiment [8], the system named is LOX IMVI melanoma.
Experiment [9] has as its system OVCAR-5 ovarian.
The subject of experiment [10] is DU-145 prostate.

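Assay format: 96-well plates, 48-hour exposure. GI50 = concentration required for 50% inhibition of growth. TGI: concentration producing complete growth inhibition.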

Regarding `CCN(CCNc1ccc(C)c2sc3cc(Cl)ccc3c(=O)c12)CC(C)(C)O`, the GI50 was 3.82 µM in experiment [1]; 1.86 µM in experiment [2]; 12 µM in experiment [3]; 15.5 µM in experiment [4]; 2.3 µM in [5]; 12.7 µM in experiment [6]. Moreover, the GI50 is 2.33 µM in [7], 3.07 µM in [8], 10.5 µM in experiment [9] and 13.1 µM in experiment [10]. For the same compound, the TGI in experiment [1] is 20 µM; in experiment [2], 4.34 µM; in [3], over 100 µM; in experiment [4], 73.7 µM; in experiment [5] it was 5.4 µM; in experiment [6], 65 µM. Besides, the TGI in [7] worked out at 5 µM; in [8] it was 10.3 µM; in experiment [9], 27.7 µM; in [10], 40.6 µM.
Take `CN1CC[C@]23c4c5ccc(O)c4OC2c2[nH]ncc2C[C@H]3[C@H]1C5` (stereo not given in full): the TGI in experiment [1], in experiment [2], in experiment [3], in experiment [4], in [5] and in experiment [6] was over 100 µM throughout. For the same compound, the TGI in experiment [7], in [8], in experiment [9] and in experiment [10] was over 100 µM throughout.
As to `O=C(CN(/C=C/C(=O)C(F)(F)F)c1ccccc1)c1ccc(F)cc1`, the GI50 in [1] is 19.2 µM; in [2], 20.8 µM; in [3], 29 µM; in [4], 23.6 µM; in experiment [5], 39.8 µM; in [6], 22.3 µM. Moreover, the GI50 was 22.6 µM in [7], 15.5 µM in experiment [8], 25.6 µM in experiment [9] and 50 µM in [10]. Moreover, the TGI in experiment [1] is 46.5 µM; in [2] it was 69.6 µM; in experiment [3], over 100 µM; in experiment [4] it was 79.8 µM; in experiment [5] it was over 100 µM; in [6], 69.4 µM. Moreover, the TGI in experiment [7] is 59.3 µM; in experiment [8], 37.6 µM; in experiment [9], 88.7 µM; in experiment [10], over 100 µM.
Turning to `CCc1ccc(C2=NN(c3ccc(S(C)(=O)=O)cc3)C(=O)CC2)cc1`, the GI50 in [1] was 0.339 µM; in experiment [2] it was 0.904 µM; in experiment [3], 2.31 µM; in experiment [4], 1.53 µM; in experiment [5], 2.05 µM; in [6], 8.48 µM. The GI50 is 1.28 µM in [7], 2.93 µM in experiment [8], 6.47 µM in [9] and 2.67 µM in [10]. Also, the TGI in experiment [1] was 8.37 µM; in experiment [2], 8.54 µM; in [3], over 100 µM; in [4] it was 17.5 µM; in experiment [5], 15.4 µM; in experiment [6], over 100 µM. For the same compound, the TGI in experiment [7] is 13.1 µM; in experiment [8], over 100 µM; in experiment [9], over 100 µM; in experiment [10], over 26.8 µM.
For `Cc1ccc(-c2nc(C(Cl)Cl)nc3cc(C)nn23)cc1`, the GI50 in experiment [1] is 2.14 µM; in experiment [2] it was 2.1 µM; in experiment [3] it was 2.55 µM; in experiment [4], 1.82 µM; in [5] it was 0.673 µM; in experiment [6], 0.783 µM. Further, the GI50 is 0.515 µM in experiment [7], 4.01 µM in experiment [8], 2.22 µM in experiment [9] and 0.432 µM in experiment [10]. In addition, the TGI in experiment [1] was over 100 µM; in [2], 6.71 µM; in [3], over 100 µM; in [4] it was over 100 µM; in experiment [5], 2.36 µM; in experiment [6], 3.6 µM. Further, the TGI in experiment [7] is 3.01 µM; in experiment [8], over 100 µM; in experiment [9], 6.72 µM; in [10] it was 2.81 µM.
Take `Cc1cc(-c2ccco2)cc(C)c1/C=C/c1cncc(-c2nn[nH]n2)c1`: the GI50 in [1], in experiment [2], in [3], in experiment [4], in experiment [5] and in experiment [6] was over 25 µM in each case. Also, the GI50 in experiment [7], in experiment [8], in experiment [9] and in experiment [10] was over 25 µM each time. For the same compound, the TGI in experiment [1], in experiment [2], in [3], in experiment [4], in experiment [5] and in [6] was over 25 µM each time. For the same compound, the TGI in experiment [7], in experiment [8], in experiment [9] and in experiment [10] was over 25 µM throughout.
In the case of `Cc1n(Cc2ccc3ccccc3n2)cc[n+]1Cc1ccc2ccccc2c1`, the GI50 in experiment [1] was 0.312 µM; in [2], 1.47 µM; in experiment [3], 0.467 µM; in experiment [4], 0.948 µM; in [5] it was 3.59 µM; in experiment [6] it was 9.46 µM. For the same compound, the GI50 is 0.659 µM in experiment [7], 1.05 µM in experiment [8], 1.67 µM in [9] and 2.08 µM in [10]. In addition, the TGI in [1] came out at 1.58 µM; in experiment [2], 7.62 µM; in experiment [3], 10.6 µM; in experiment [4], 10.6 µM; in experiment [5], 17.4 µM; in [6], 46.4 µM. The TGI in [7] was 11.2 µM; in experiment [8] it was 3.77 µM; in experiment [9], 13 µM; in experiment [10], 14.8 µM.
On to `Cc1ccc(O)cc1Nc1ccnc2cc(-c3ccccn3)ccc12`, for which the GI50 in experiment [1] is 0.931 µM; in [2] it was 3.12 µM; in experiment [3], 3.08 µM; in experiment [4] it was 4.18 µM; in experiment [5] it was 1.95 µM; in experiment [6], 0.611 µM. For the same compound, the GI50 in experiment [7] is 3.65 µM; in experiment [8] it was 2.26 µM; in experiment [9] it was 2.98 µM; in [10], 1.38 µM. In addition, the TGI is 4.6 µM in [1]; 6.89 µM in experiment [2]; 10.4 µM in [3]; 10.7 µM in experiment [4]; 5.37 µM in experiment [5]; 5.16 µM in experiment [6]. The TGI in experiment [7] is 7.4 µM; in experiment [8] it was 5.71 µM; in experiment [9] it was 9.21 µM; in experiment [10], 8.28 µM.
Consider `CN(c1ccc(NC(=O)NCCN2CCOCC2)cc1)c1ccnc(Nc2ccc(CS(C)(=O)=O)cc2)n1`, for which the GI50 in [1], in [2], in experiment [3], in [4], in [5] and in experiment [6] was over 25 µM in each case. Besides, the GI50 in experiment [7], in experiment [8], in experiment [9] and in experiment [10] was over 25 µM throughout. For the same compound, the TGI in [1], in experiment [2], in experiment [3], in experiment [4], in [5] and in [6] was over 25 µM throughout. Further, the TGI in experiment [7], in experiment [8], in experiment [9] and in experiment [10] was over 25 µM throughout.
As to `O=[N+]([O-])c1ccc(/C=C\c2ccc3c(c2)OCO3)c([N+](=O)[O-])c1`, the TGI in experiment [1] is 25.6 µM; in [2] it was 59.1 µM; in [3], 63.4 µM; in experiment [4], 33.8 µM; in experiment [5], 7.76 µM; in experiment [6], 33.6 µM. In addition, the TGI in experiment [7] was determined as 54.5 µM; in [8] it was 27 µM; in experiment [9] it was 35.5 µM; in [10], 47 µM.
For the compound `COc1cc2c3c(n(CCCN4CCSCC4)c(=O)c2cc1OC)-c1cc2c(cc1C3=O)OCO2`, the GI50 was 19.9 µM in experiment [1]; 19 µM in [2]; 42.8 µM in experiment [3]; 0.632 µM in experiment [4]; 27.3 µM in experiment [5]; 58.6 µM in experiment [6]. Moreover, the GI50 in experiment [7] was 49.7 µM; in [8] it was over 100 µM; in [9], 53.6 µM; in [10] it was over 100 µM. The TGI in experiment [1] was 65.4 µM; in experiment [2], over 100 µM; in [3], over 100 µM; in experiment [4] it was 13.4 µM; in experiment [5], 67.8 µM; in [6], over 100 µM. Also, the TGI in experiment [7], in experiment [8], in experiment [9] and in experiment [10] was over 100 µM throughout.
As to `Oc1ccc(-c2[nH]c3ccccc3c2-c2nc3ccccc3o2)cc1`, the GI50 in [1] was 2.83 µM; in experiment [2] it was 4.48 µM; in experiment [3] it was 3.35 µM; in experiment [4] it was 6.49 µM; in [5], 4.24 µM; in experiment [6], 3.58 µM. Besides, the GI50 in experiment [7] is 3.24 µM; in experiment [8], 1.9 µM; in experiment [9], 4.49 µM; in [10] it was 5.69 µM. The TGI in experiment [1] was found to be 9.65 µM; in [2], 19.4 µM; in experiment [3], 18.5 µM; in experiment [4], 41.3 µM; in experiment [5], 18.9 µM; in [6], 14.9 µM. Moreover, the TGI in experiment [7] turned out to be 11.5 µM; in experiment [8] it was 5.72 µM; in [9], 17.2 µM; in experiment [10], 18.3 µM.
